Data: US7396837B2, “Antitumoral analogs of lamellarins” (Pharma Mar, S.A.U., priority 2002, dated 2008)

Tests used:
human topoisomerase I = target: T1, human topoisomerase I (Homo sapiens, UniProt P11387); assay: Topoisomerase I DNA relaxation assay (supercoiled plasmid DNA); type: biochemical
T1 sequence (P11387 1-765): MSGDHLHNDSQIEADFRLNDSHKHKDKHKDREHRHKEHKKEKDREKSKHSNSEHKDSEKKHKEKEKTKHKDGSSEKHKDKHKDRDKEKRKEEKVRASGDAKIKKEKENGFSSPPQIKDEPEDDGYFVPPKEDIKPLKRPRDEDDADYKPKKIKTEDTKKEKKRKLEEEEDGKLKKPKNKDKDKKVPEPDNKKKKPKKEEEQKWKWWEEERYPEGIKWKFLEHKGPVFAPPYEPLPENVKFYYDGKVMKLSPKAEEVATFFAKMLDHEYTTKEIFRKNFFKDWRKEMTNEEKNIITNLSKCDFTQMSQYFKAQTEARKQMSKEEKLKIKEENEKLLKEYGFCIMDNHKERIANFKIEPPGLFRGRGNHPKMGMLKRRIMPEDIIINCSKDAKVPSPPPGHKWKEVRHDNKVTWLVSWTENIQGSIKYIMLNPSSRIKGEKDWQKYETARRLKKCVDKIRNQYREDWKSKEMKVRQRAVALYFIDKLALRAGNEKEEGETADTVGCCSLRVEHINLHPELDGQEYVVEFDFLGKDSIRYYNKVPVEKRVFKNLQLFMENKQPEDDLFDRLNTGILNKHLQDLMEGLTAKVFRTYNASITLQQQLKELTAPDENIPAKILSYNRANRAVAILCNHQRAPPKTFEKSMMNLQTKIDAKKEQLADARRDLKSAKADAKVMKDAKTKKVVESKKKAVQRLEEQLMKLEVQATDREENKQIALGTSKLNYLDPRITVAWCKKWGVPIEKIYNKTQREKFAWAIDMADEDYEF
Outline: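 Test compounds (1 μM each) were present during topoisomerase I relaxation of supercoiled plasmid DNA. Relaxation was assessed on ethidium bromide-stained agarose gels.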

IGROV = assay: SRB colorimetric cell growth inhibition assay, IGROV; type: cell-based; details: Homo sapiens, IGROV
Outline: (§1)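 Continuous drug exposure of human cancer cells; SRB protein stain read-out; triplicate wells, mean ± SD; GI, TGI, LC computed.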

SK-MEL-28 = assay: SRB colorimetric cell growth inhibition assay, SK-MEL-28; type: cell-based; details: Homo sapiens, SK-MEL-28, MEL-28
Outline: as §1

LoVo = assay: SRB colorimetric cell growth inhibition assay, LoVo; type: cell-based; details: Homo sapiens, LoVo
Outline: as §1

PANC-1 = assay: SRB colorimetric cell growth inhibition assay, PANC-1; type: cell-based; details: Homo sapiens, PANC-1, PANC-1
Outline: as §1

LoVo-Dox = assay: SRB colorimetric cell growth inhibition assay, LoVo-Dox (MDR); type: cell-based; details: Homo sapiens, LOVO-DOX
Outline: as §1

LNCaP = assay: SRB colorimetric cell growth inhibition assay, LNCaP; type: cell-based; details: Homo sapiens, LNCaP, LN-caP
Outline: as §1

DU-145 = assay: SRB colorimetric cell growth inhibition assay, DU-145; type: cell-based; details: Homo sapiens, DU-145, DU-145
Outline: as §1

HT-29 = assay: SRB colorimetric cell growth inhibition assay, HT-29; type: cell-based; details: Homo sapiens, HT-29, HT-29
Outline: as §1

IGROV-ET = assay: SRB colorimetric cell growth inhibition assay, IGROV-ET (ET-743 resistant); type: cell-based; details: Homo sapiens, IGROV-ET
Outline: as §1

K-562 = assay: SRB colorimetric cell growth inhibition assay, K-562; type: cell-based; details: Homo sapiens, K562, K-562
Outline: as §1

A-549 = assay: SRB colorimetric cell growth inhibition assay, A-549; type: cell-based; details: Homo sapiens, A549, A-549
Outline: as §1

SK-BR-3 = assay: SRB colorimetric cell growth inhibition assay, SK-BR-3; type: cell-based; details: Homo sapiens, SK-BR-3, SK-BR-3
Outline: as §1

Q: For `COc1cc(-c2c3c4cc(OC)c(OC(=O)CCCCCN)cc4oc(=O)c3n3ccc4cc(OC(=O)CCCCCN)c(OC)cc4c23)ccc1OC(=O)CCCCCN` [Compound 169], which “stimulation of DNA cleavage by topoisomerase I, concentration-dependent measurements compared with LAM-D (3)” value (human topoisomerase I; dose-response analysis) is on record?
A: equally efficient to (3)

Q: And the “stimulation of DNA cleavage by topoisomerase I / inhibition of topoisomerase I (nicked DNA band) in DNA relaxation assay” value (human topoisomerase I; supercoiled plasmid DNA, each compound tested at 1 μM, agarose gel with ethidium bromide)?
A: inhibit topoisomerase I

Q: And the GI50 (IGROV; GI=growth inhibition, read-out: GI50 IGROV)?
A: 0.0471 µM

Q: And the CC50 (IGROV; cell killing (cytotoxic effect), read-out: LC50 IGROV)?
A: 10.5 µM

Q: What about the IC (TGI) (IGROV; total growth inhibition (cytostatic effect), read-out: TGI IGROV) of the same molecule?
A: 1.92 µM

Q: And the GI50 (SK-MEL-28; GI=growth inhibition, read-out: GI50 MEL-28)?
A: 0.0464 µM

Q: What about the CC50 (SK-MEL-28; cell killing (cytotoxic effect), read-out: LC50 MEL-28) of the same molecule?
A: 10.5 µM

Q: What about the IC (TGI) (SK-MEL-28; total growth inhibition (cytostatic effect), read-out: TGI MEL-28) of the same molecule?
A: 0.529 µM

Q: What about the GI50 (LoVo; GI=growth inhibition, read-out: GI50 LOVO) of the same molecule?
A: 0.159 µM

Q: And the CC50 (LoVo; cell killing (cytotoxic effect), read-out: LC50 LOVO)?
A: 1.42 µM

Q: And the IC (TGI) (LoVo; total growth inhibition (cytostatic effect), read-out: TGI LOVO)?
A: 0.418 µM

Q: What about the GI50 (PANC-1; GI=growth inhibition, read-out: GI50 PANC-1) of the same molecule?
A: 0.152 µM

Q: And the CC50 (PANC-1; cell killing (cytotoxic effect), read-out: LC50 PANC-1)?
A: 10.5 µM

Q: And the IC (TGI) (PANC-1; total growth inhibition (cytostatic effect), read-out: TGI PANC-1)?
A: 10.5 µM

Q: What about the GI50 (LoVo-Dox; GI=growth inhibition, read-out: GI50 LOVO-DOX) of the same molecule?
A: 0.258 µM

Q: What about the CC50 (LoVo-Dox; cell killing (cytotoxic effect), read-out: LC50 LOVO-DOX) of the same molecule?
A: 1050 µM

Q: And the IC (TGI) (LoVo-Dox; total growth inhibition (cytostatic effect), read-out: TGI LOVO-DOX)?
A: 0.922 µM

Q: What about the GI50 (LNCaP; GI=growth inhibition, read-out: GI50 LN-caP) of the same molecule?
A: 0.0373 µM

Q: What about the CC50 (LNCaP; cell killing (cytotoxic effect), read-out: LC50 LN-caP) of the same molecule?
A: 1.24 µM

Q: And the IC (TGI) (LNCaP; total growth inhibition (cytostatic effect), read-out: TGI LN-caP)?
A: 0.183 µM

Q: What about the GI50 (DU-145; GI=growth inhibition, read-out: GI50 DU-145) of the same molecule?
A: 0.0151 µM

Q: And the CC50 (DU-145; cell killing (cytotoxic effect), read-out: LC50 DU-145)?
A: 0.0105 µM

Q: And the IC (TGI) (DU-145; total growth inhibition (cytostatic effect), read-out: TGI DU-145)?
A: 0.0901 µM

Q: And the GI50 (HT-29; GI=growth inhibition, read-out: GI50 HT-29)?
A: 2.97 µM

Q: And the CC50 (HT-29; cell killing (cytotoxic effect), read-out: LC50 HT-29)?
A: 10.5 µM

Q: And the IC (TGI) (HT-29; total growth inhibition (cytostatic effect), read-out: TGI HT-29)?
A: 10.5 µM

Q: What about the GI50 (IGROV-ET; GI=growth inhibition, read-out: GI50 IGROV-ET) of the same molecule?
A: 0.0418 µM

Q: And the CC50 (IGROV-ET; cell killing (cytotoxic effect), read-out: LC50 IGROV-ET)?
A: 10.5 µM

Q: And the IC (TGI) (IGROV-ET; total growth inhibition (cytostatic effect), read-out: TGI IGROV-ET)?
A: 0.301 µM

Q: And the GI50 (K-562; GI=growth inhibition, read-out: GI50 K-562)?
A: 0.068 µM

Q: And the CC50 (K-562; cell killing (cytotoxic effect), read-out: LC50 K-562)?
A: 10.5 µM

Q: And the IC (TGI) (K-562; total growth inhibition (cytostatic effect), read-out: TGI K-562)?
A: 3.21 µM

Q: What about the GI50 (A-549; GI=growth inhibition, read-out: GI50 A-549) of the same molecule?
A: 0.0646 µM

Q: What about the CC50 (A-549; cell killing (cytotoxic effect), read-out: LC50 A-549) of the same molecule?
A: 9.74 µM

Q: What about the IC (TGI) (A-549; total growth inhibition (cytostatic effect), read-out: TGI A-549) of the same molecule?
A: 1.14 µM

Q: What about the GI50 (SK-BR-3; GI=growth inhibition, read-out: GI50 SK-BR-3) of the same molecule?
A: 0.0387 µM

Q: And the CC50 (SK-BR-3; cell killing (cytotoxic effect), read-out: LC50 SK-BR-3)?
A: 10.5 µM

Q: What about the IC (TGI) (SK-BR-3; total growth inhibition (cytostatic effect), read-out: TGI SK-BR-3) of the same molecule?
A: 0.132 µM
